According to the supplement of paper PMC10307832:

Assays:
Assay in all cases: relative viability (nuclei count vs DMSO), 5 days (fraction); higher = more cells survive
GSK-J4 + Decitabine = compound: CCOC(=O)CCNc1cc(N2CCc3ccccc3CC2)nc(-c2ccccn2)n1 [GSK-J4] + Nc1ncn([C@H]2C[C@H](O)[C@@H](CO)O2)c(=O)n1 [Decitabine] (partner 2 µM)
Outline: (§1)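 A single step with final 0.05% Triton X-100, 1% formaldehyde and 1 ug/ml Hoechst fixed the cells and stained nuclei 5 days after treatment. Lung cancer cell lines in 1536-well plates had been treated by pin tool the day after seeding with one drug alone or a fixed anchor-drug dose plus five library-drug doses (not always all listed) in √10 steps, and nuclei were counted on 4× images. Relative viability is the ratio of nuclei in treated wells to nuclei in vehicle wells, taken as the median of duplicate plates.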

GSK-J4 + Bortezomib = compound: CCOC(=O)CCNc1cc(N2CCc3ccccc3CC2)nc(-c2ccccn2)n1 [GSK-J4] + CC(C)C[C@H](NC(=O)[C@H](Cc1ccccc1)NC(=O)c1cnccn1)B(O)O [Bortezomib] (partner 0.002 µM)
Outline: as §1

AZ3146 + Luminespib = compound: CN1CCC(CC1)OC2=CC(=C(C=C2)NC3=NC=C4C(=N3)N(C(=O)N4C)C5CCCC5)OC [AZ3146] + CCNC(=O)c1noc(-c2cc(C(C)C)c(O)cc2O)c1-c1ccc(CN2CCOCC2)cc1 [Luminespib] (partner 0.01 µM)
Outline: as §1

AZ3146 + Dasatinib = compound: CN1CCC(CC1)OC2=CC(=C(C=C2)NC3=NC=C4C(=N3)N(C(=O)N4C)C5CCCC5)OC [AZ3146] + Cc1nc(Nc2ncc(C(=O)Nc3c(C)cccc3Cl)s2)cc(N2CCN(CCO)CC2)n1 [Dasatinib] (partner 0.075 µM)
Outline: as §1

| Cell Line | relative viability (GSK-J4 + Decitabine; first compound 0.5 µM) | relative viability (GSK-J4 + Decitabine; first compound 1.581 µM) | relative viability (GSK-J4 + Decitabine; first compound 5 µM) | relative viability (GSK-J4 + Decitabine; first compound 15.81 µM) | relative viability (GSK-J4 + Decitabine; first compound 50 µM) | relative viability (GSK-J4 + Bortezomib; first compound 0.5 µM) | relative viability (GSK-J4 + Bortezomib; first compound 1.581 µM) | relative viability (GSK-J4 + Bortezomib; first compound 5 µM) | relative viability (GSK-J4 + Bortezomib; first compound 15.81 µM) | relative viability (GSK-J4 + Bortezomib; first compound 50 µM) | relative viability (AZ3146 + Luminespib; first compound 0.08 µM) | relative viability (AZ3146 + Luminespib; first compound 0.253 µM) | relative viability (AZ3146 + Luminespib; first compound 0.8 µM) | relative viability (AZ3146 + Luminespib; first compound 2.53 µM) | relative viability (AZ3146 + Luminespib; first compound 8 µM) | relative viability (AZ3146 + Dasatinib; first compound 0.08 µM) | relative viability (AZ3146 + Dasatinib; first compound 0.253 µM) | relative viability (AZ3146 + Dasatinib; first compound 0.8 µM) | relative viability (AZ3146 + Dasatinib; first compound 2.53 µM) | relative viability (AZ3146 + Dasatinib; first compound 8 µM) |
| --- | --- | --- | --- | --- | --- | --- | --- | --- | --- | --- | --- | --- | --- | --- | --- | --- | --- | --- | --- | --- |
| HCC-827 | 0.345 | 0.31 | 0.482 | 0.292 | 0.31 | 1.02 | 0.95 | 0.883 | 1.11 | 1.04 | 0.62 | 0.616 | 0.574 | 0.609 | 0.598 | 0.381 | 0.345 | 0.409 | 0.333 | 0.218 |
| HOP-62 | 0.257 | 0.233 | 0.2 | 0.193 | 0.225 | 0.688 | 0.532 | 0.73 | 0.74 | 0.823 | 0.943 | 0.865 | 0.87 | 0.959 | 0.992 | 0.603 | 0.618 | 0.609 | 0.646 | 0.656 |
| IA-LM |  |  |  |  |  | 0.709 | 0.816 | 0.775 | 0.763 | 0.131 |  |  |  |  |  |  |  |  |  |  |
| LC-2-ad | 0.746 | 0.803 | 0.866 | 0.776 | 0.793 | 0.932 | 0.907 | 0.749 | 1.01 | 0.94 | 0.877 | 1.16 | 1.08 | 1.09 | 1.07 | 0.549 | 0.746 | 0.584 | 0.665 | 0.527 |
| LCLC-97TM1 | 0.213 | 0.237 | 0.225 | 0.262 | 0.215 | 0.981 |  | 0.393 | 0.449 | 0.526 | 0.825 | 0.673 | 0.647 | 0.814 | 0.878 | 0.669 | 0.755 | 0.762 | 0.785 | 0.812 |
| LCLC-103H | 0.784 | 0.624 | 0.786 | 0.722 | 0.572 | 1.05 | 0.96 | 1.02 | 0.899 | 1.07 | 1.01 | 0.917 | 0.966 | 1.01 | 1.02 | 0.532 | 0.354 | 0.472 | 0.551 | 0.422 |
| LK-2 | 0.222 | 0.283 | 0.447 | 0.262 | 0.338 |  |  |  |  |  | 0.22 | 0.194 | 0.257 | 0.151 | 0.203 | 0.376 | 0.218 | 0.279 | 0.25 | 0.322 |
| NCI-H358 | 0.206 |  | 0.216 | 0.177 | 0.159 |  |  |  |  |  | 0.407 | 0.383 | 0.51 | 0.508 | 0.394 | 0.2 | 0.135 | 0.149 | 0.153 | 0.209 |
| NCI-H522 | 0.776 | 0.611 |  | 0.573 | 0.651 |  |  |  |  |  | 1.1 | 1.03 | 1.2 | 1.13 | 1.18 | 0.721 | 0.73 | 0.863 | 0.815 | 1.02 |
| NCI-H1299 |  |  |  |  |  | 1.06 | 0.94 | 0.876 | 0.98 | 0.985 |  |  |  |  |  |  |  |  |  |  |
